The results in this text go back to PubChem BioAssay (NCI).

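Where inhibition never reached the appropriate level, the endpoint shown equals the highest concentration tested. Otherwise, values were interpolated linearly from a five-concentration, 48-hour dose response in 96-well plates. GI50: concentration for 50% inhibition of growth. At the TGI there is no net growth.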

Among the test systems are A549 NSCLC; COLO 205 colon; EKVX NSCLC; HCT-15 colon; HOP-62 NSCLC; KM12 colon; OVCAR-4 ovarian; SF-268 CNS; SF-295 CNS; SR leukemia.
Holding throughout (assay): NCI anticancer screen, dose series, 48 h

`O=C1C=CC(=O)N1CCCCCCCCCCN1C(=O)C=CC1=O`: the GI50 in the assay on A549 NSCLC is 18.2 µM; in the assay on COLO 205 colon, 2150 nM; in the assay with EKVX NSCLC, 19.4 µM; in the assay with HCT-15 colon, 10300 nM; in the assay with HOP-62 NSCLC, 16.2 µM; in the assay with KM12 colon it was 15400 nM. Besides, the GI50 in the assay on OVCAR-4 ovarian was 8380 nM; with SF-268 CNS, 15800 nM; in the assay with SF-295 CNS it was 23500 nM; in the assay with SR leukemia, 6880 nM. Besides, the TGI in the assay on A549 NSCLC came to 41.5 µM; in the assay with COLO 205 colon, 5.62 µM; in the assay with EKVX NSCLC it was 39.2 µM; with HCT-15 colon, 25.7 µM; with HOP-62 NSCLC it was 31.3 µM; in the assay on KM12 colon, 30.3 µM. The TGI is 24.8 µM with OVCAR-4 ovarian, 30.4 µM with SF-268 CNS, 74.4 µM in the assay with SF-295 CNS and 41.2 µM with SR leukemia.
In the case of `C(#Cc1ccccc1C#Cc1ccccn1)c1ccc(OCCCCCCOc2ccc(C#Cc3ccccc3C#Cc3ccccn3)cc2)cc1`, the GI50 in the assay with A549 NSCLC was 5.72 µM; with COLO 205 colon it was 8350 nM; with EKVX NSCLC, 5.09 µM; in the assay with HCT-15 colon, 1760 nM; in the assay on HOP-62 NSCLC, 6.51 µM; with KM12 colon, 1650 nM. The GI50 was 2700 nM in the assay with OVCAR-4 ovarian, 2520 nM with SF-268 CNS, 1320 nM with SF-295 CNS and 2450 nM with SR leukemia. The TGI stood at 13.8 µM in the assay on A549 NSCLC; 15.6 µM in the assay on COLO 205 colon; 22.9 µM in the assay on EKVX NSCLC; 9.37 µM in the assay with HCT-15 colon; 14.6 µM with HOP-62 NSCLC; 8.34 µM in the assay on KM12 colon. The TGI with OVCAR-4 ovarian worked out at 11.5 µM; in the assay on SF-268 CNS, 10.8 µM; in the assay on SF-295 CNS, 5.08 µM; with SR leukemia it was 19.4 µM.
Take `Cc1cc(Cl)ccc1Nc1nc(C(F)(F)F)ccc1C(=O)N/N=C/c1ccc(F)cc1`: the GI50 was 2.08 µM in the assay on A549 NSCLC; 1610 nM with COLO 205 colon; 1.13 µM in the assay on EKVX NSCLC; 621 nM with HCT-15 colon; 1.68 µM in the assay on HOP-62 NSCLC; 1990 nM in the assay on KM12 colon. Further, the GI50 in the assay with OVCAR-4 ovarian was 513 nM; in the assay on SF-268 CNS it was 1140 nM; in the assay with SF-295 CNS it was 710 nM; in the assay with SR leukemia it was 863 nM. The TGI in the assay with A549 NSCLC was determined as 6.01 µM; in the assay on COLO 205 colon, 3.64 µM; with EKVX NSCLC, 8.17 µM; in the assay with HCT-15 colon it was 12.4 µM; in the assay with HOP-62 NSCLC, 6.65 µM; in the assay on KM12 colon, 5.33 µM. Besides, the TGI in the assay with OVCAR-4 ovarian was 12.9 µM; with SF-268 CNS it was 5.64 µM; in the assay on SF-295 CNS, 3.63 µM; with SR leukemia, 3.62 µM.
